Test [1] deals with α1β3γ2 GABAAR (Homo sapiens, UniProt P14867+P28472). It counts as cell-based.
Test [2] deals with α1β3L297Aγ2 GABAAR (Homo sapiens, UniProt P14867+P28472, L322A). It counts as cell-based. To be noted: for loss of sensitivity to potentiation versus wild type: L297A vs WT.
The target of test [3] is α1β3F301Aγ2 GABAAR (Homo sapiens, UniProt P14867+P28472, F326A). The format is cell-based.
Test [4] relates to GABAAR heteromers. To be noted: cited from earlier work.
In test [5] the target is T1, α5TMD (Homo sapiens, UniProt P28472+P31644, DEL351-357/DEL363-425/E358R/G348Q/K256N/R347S/W349P).
T1 sequence (P28472+P31644 with tags, fused parts or gaps P31644:K256N/P31644:R347S/P31644:G348Q/P31644:W349P/P31644:DEL351-357/P31644:E358R/P31644:DEL363-425): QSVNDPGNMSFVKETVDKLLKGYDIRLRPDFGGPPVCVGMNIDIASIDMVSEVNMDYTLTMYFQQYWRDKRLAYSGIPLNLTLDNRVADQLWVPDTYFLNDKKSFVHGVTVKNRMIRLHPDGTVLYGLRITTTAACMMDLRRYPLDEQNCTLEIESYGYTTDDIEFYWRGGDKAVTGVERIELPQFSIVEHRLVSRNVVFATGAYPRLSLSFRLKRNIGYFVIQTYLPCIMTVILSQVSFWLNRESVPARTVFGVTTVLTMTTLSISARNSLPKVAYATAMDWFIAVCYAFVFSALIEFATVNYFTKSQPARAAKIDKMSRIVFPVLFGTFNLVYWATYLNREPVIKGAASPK
As to the kind of experiment: Whole-cell patch-clamp of α5TMD in transfected HEK-293T cells. It counts as cell-based. For orientation: The patch-clamp technique gives a direct electrical read-out from membranes.

The target of test [6] is T2, α5TMD T287K T309A (Homo sapiens, UniProt P28472, A271S/A273P/A277V/D270E/DELINS289-473LSISARNSLPKVAYAKAMDWFIAVCYAFVFSALIEFAAVNYFTKSQPARAAKIDKMSRIVFPVLFGTFNLVYWATYLNREPVIKGAASPK/I247V/I257T/I267L/I280V/L248I/L256M/L278F/M252L/S254C/S272V/T258V/V276T/W262Q/Y269R).
T2 sequence (P28472 with tags, fused parts or gaps I247V/L248I/M252L/S254C/L256M/I257T/T258V/W262Q/I267L/Y269R/D270E/A271S/S272V/A273P/V276T/A277V/L278F/I280V): T1 sequence (P28472+P31644 with tags, fused parts or gaps P31644:K256N/P31644:R347S/P31644:G348Q/P31644:W349P/P31644:DEL351-357/P31644:E358R/P31644:DEL363-425) with T279K, T301A
It counts as cell-based.

For test [7], the target named is T1, α5TMD. Kind of test: Thermostability binding experiment.
In test [8] the target is T3, α5TMD Q245L (Homo sapiens, UniProt P28472, A271S/A273P/A277V/D270E/DELINS289-473LSISARNSLPKVAYATAMDWFIAVCYAFVFSALIEFATVNYFTKSQPARAAKIDKMSRIVFPVLFGTFNLVYWATYLNREPVIKGAASPK/I247V/I257T/I267L/I280V/L248I/L256M/L278F/M252L/S254C/S272V/T258V/V276T/W262L/Y269R).
T3 sequence (P28472 with tags, fused parts or gaps I247V/L248I/M252L/S254C/L256M/I257T/T258V/W262L/I267L/Y269R/D270E/A271S/S272V/A273P/V276T/A277V/L278F/I280V): T1 sequence (P28472+P31644 with tags, fused parts or gaps P31644:K256N/P31644:R347S/P31644:G348Q/P31644:W349P/P31644:DEL351-357/P31644:E358R/P31644:DEL363-425) with Q237L
As to the kind of experiment: Thermostability binding experiment.

In test [9] the target is T4, α5TMD T287K W249L (Homo sapiens, UniProt P28472, A271S/A273P/A277V/D270E/DELINS289-473LSISARNSLPKVAYAKAMDWFIAVCYAFVFSALIEFATVNYFTKSQPARAAKIDKMSRIVFPVLFGTFNLVYWATYLNREPVIKGAASPK/I247V/I257T/I267L/I280V/L248I/L256M/L278F/M252L/S254C/S272V/T258V/V276T/W262Q/W266L/Y269R).
T4 sequence (P28472 with tags, fused parts or gaps I247V/L248I/M252L/S254C/L256M/I257T/T258V/W262Q/W266L/I267L/Y269R/D270E/A271S/S272V/A273P/V276T/A277V/L278F/I280V): T1 sequence (P28472+P31644 with tags, fused parts or gaps P31644:K256N/P31644:R347S/P31644:G348Q/P31644:W349P/P31644:DEL351-357/P31644:E358R/P31644:DEL363-425) with W241L, T279K
It counts as cell-based.

In test [10] the target is T5, α5TMD T287K (chimeric GABAAR, β3 subunit ECD fused to α5 subunit TMD) (Homo sapiens, UniProt P28472, A271S/A273P/A277V/D270E/DELINS289-473[…]/I247V/I257T/I267L/I280V/L248I/L256M/L278F/M252L/S254C/S272V/T258V/V276T/W262Q/Y269R).
T5 sequence (P28472 with tags, fused parts or gaps I247V/L248I/M252L/S254C/L256M/I257T/T258V/W262Q/I267L/Y269R/D270E/A271S/S272V/A273P/V276T/A277V/L278F/I280V): T1 sequence (P28472+P31644 with tags, fused parts or gaps P31644:K256N/P31644:R347S/P31644:G348Q/P31644:W349P/P31644:DEL351-357/P31644:E358R/P31644:DEL363-425) with T279K
It counts as cell-based. To be noted: T287K background; n = 6.

Test [11] concerns the target T6, α5TMD T287K (chimeric GABAAR, β3 subunit ECD fused to α5 subunit TMD) (Homo sapiens, UniProt P28472, A271S/A273P/A277V/D270E/DELINS289-473LSISARNSLPKVAYAKAMDWFIAVCYAFVFSALIEFATVNYFTKSQPARAAKIDKMSRIVFPVLFGTFNLVYWATYLNREPVIKGAASPK/I247V/I257T/I267L/I280V/L248I/L256M/L278F/M252L/S254C/S272V/T258V/V276T/W262Q/Y269R).
T6 sequence (P28472 with tags, fused parts or gaps I247V/L248I/M252L/S254C/L256M/I257T/T258V/W262Q/I267L/Y269R/D270E/A271S/S272V/A273P/V276T/A277V/L278F/I280V): T1 sequence (P28472+P31644 with tags, fused parts or gaps P31644:K256N/P31644:R347S/P31644:G348Q/P31644:W349P/P31644:DEL351-357/P31644:E358R/P31644:DEL363-425) with T279K
The format is cell-based. The settings on record: EC50 of potentiation of histamine EC10-15 responses, Fig. 1e; n = 6.

Test [12] has as its target T7, α5TMD T287K Q245L (Homo sapiens, UniProt P28472, A271S/A273P/A277V/D270E/DELINS289-473[…]/I247V/I257T/I267L/I280V/L248I/L256M/L278F/M252L/S254C/S272V/T258V/V276T/W262L/Y269R).
T7 sequence (P28472 with tags, fused parts or gaps I247V/L248I/M252L/S254C/L256M/I257T/T258V/W262L/I267L/Y269R/D270E/A271S/S272V/A273P/V276T/A277V/L278F/I280V): T1 sequence (P28472+P31644 with tags, fused parts or gaps P31644:K256N/P31644:R347S/P31644:G348Q/P31644:W349P/P31644:DEL351-357/P31644:E358R/P31644:DEL363-425) with Q237L, T279K
It counts as cell-based. To be noted: leucine substitution of M1 Gln245.

The target in test [13] is T8, α5TMD Q245W (Homo sapiens, UniProt P28472, A271S/A273P/A277V/D270E/DELINS289-473LSISARNSLPKVAYATAMDWFIAVCYAFVFSALIEFATVNYFTKSQPARAAKIDKMSRIVFPVLFGTFNLVYWATYLNREPVIKGAASPK/I247V/I257T/I267L/I280V/L248I/L256M/L278F/M252L/S254C/S272V/T258V/V276T/Y269R).
T8 sequence (P28472 with tags, fused parts or gaps I247V/L248I/M252L/S254C/L256M/I257T/T258V/I267L/Y269R/D270E/A271S/S272V/A273P/V276T/A277V/L278F/I280V): T1 sequence (P28472+P31644 with tags, fused parts or gaps P31644:K256N/P31644:R347S/P31644:G348Q/P31644:W349P/P31644:DEL351-357/P31644:E358R/P31644:DEL363-425) with Q237W
Kind of test: Thermostability binding experiment.

Where only a bound is given, the exact number is not on record here.

In general, EC50 refers to the concentration needed to bring the measured effect to its halfway point. Take `CC(=O)[C@H]1CC[C@H]2[C@@H]3CC[C@H]4C[C@H](O)CC[C@]4(C)[C@H]3CC[C@]12C` [allopregnanolone]: the figures for the EC50 in test [1], in [2] and in test [3] were 280 ± 40 nM, 1600 ± 200 nM and 260 ± 60 nM, respectively. Also, in test [2], the “loss of sensitivity to potentiation versus wild type” value was found to be 5 fold.

As to `CC(=O)[C@H]1CC[C@H]2[C@@H]3CC[C@@H]4C[C@@H](O)CC[C@]4(C)[C@H]3CC[C@]12C` [epipregnanolone], in [4], the “potentiation of GABAAR heteromers (qualitative)” value is reported as “weak potentiator”.

As for `NCCc1c[nH]cn1` [histamine], the “agonist effect on receptor current” value in test [5] (Fig. 1a) is “activated and then desensitised”.

With `CC(=O)[C@H]1CC[C@H]2[C@@H]3CC[C@@H]4C[C@H](O)CC[C@]4(C)[C@H]3CC[C@]12C` [pregnanolone], the EC50 was 2200 ± 300 nM in test [6]; 240 ± 20 nM in test [1]; 2500 ± 200 nM in test [2]; 5.5 ± 0.3 µM in test [7]; more than 30 µM in test [8]; more than 10 µM in test [9]. Further, the EC50 is 280 ± 40 nM in test [3], 1300 ± 100 nM in test [11] and more than 30 µM in [13]. Besides, the “loss of sensitivity to potentiation versus wild type” value in test [2] is 10 fold. The “potentiation of submaximal (EC10-15) histamine doses” value in [10] is given as 325 ± 104%. Also, the “potentiation of histamine EC10-15 responses” value in [12] is on record as “ablated”.

For picrotoxin, the “effect on spontaneous inward leak current” value in test [5] (Fig. 1b) is on record as “blocks a spontaneous inward leak current”.
